Measured values reported in patent US20220340566A1, “BENZYL AMINE-CONTAINING 5,6-HETEROAROMATIC COMPOUNDS USEFUL AGAINST MYCOBACTERIAL INFECTION” (priority 2019, published 2022).
Like-named read-outs stand apart in the source and are kept apart here.

Tests used:
[1] = system: Mycobacterium avium ATCC700898; experiment: Determination of IC85 against M. avium (resazurin fluorescence); type: cell-based; conditions: 37° C., 3 days incubation then resazurin, fluorescence one day later
[2] = Metabolic stability test in pooled human liver microsomes; type: in vitro ADME; conditions: human liver microsomes 0.5 mg protein/mL, 1 mmol/L NADPH, 37° C., 30 minutes
Description: Using a commercially available pooled human liver microsomes, a compound of the present invention was reacted for a constant time, a remaining rate was calculated by comparing a reacted sample and an unreacted sample, thereby, a degree of metabolism in liver was assessed.
A reaction was performed (oxidative reaction) at 37° C. for 0 minute or 30 minutes in the presence of 1 mmol/L NADPH in 0.2 mL of a buffer (50 mmol/L Tris-HCl pH 7.4, 150 mmol/L potassium chloride, 10 mmol/L magnesium chloride) containing 0.5 mg protein/mL of human liver microsomes. After the reaction, 50 μL of the reaction solution was added to 100 μL of a methanol/acetonitrile=1/1 (v/v), mixed and centrifuged at 3000 rpm for 15 minutes. The compound of the present invention in the supernatant was quantified by LC/MS/MS or solid phase extraction (SPE)/MS, and a remaining amount of the compound of the present invention after the reaction was calculated, letting a compound amount at 0 minute reaction time to be 100%.

[3] = Mycobacterium avium, ATCC700898, M. avium ATCC700898, CAMHB medium, read-out: IC85
[4] = M. avium ATCC700898, CAMHB medium

Row | Structure (SMILES) | IC85 [1, 3] [nM] | MS_h_% (remaining amount of compound after reaction, 0 minute = 100%) [2] [%] | IC85 [1, 4] [nM]
1 | Cc1ccn2c(C(=O)NCc3ccc(C4CCN(c5ccc(OCC(F)(F)F)cc5)CC4)c(F)c3)c(C)nc2c1 [Compound I-1-21] | 38 | 89 | –
2 | Cc1ccn2c(C(=O)NCc3ccc(C4CCN(c5ccc(OC(F)(F)F)cc5F)CC4)c(F)c3)c(C)nc2c1 [Compound I-1-22] | 28 | 87 | –
3 | Cc1ccn2c(C(=O)NCc3ccc(N4CCN(c5ccc(OC(F)(F)F)cc5)[C@@H](C)C4)c(F)c3)c(C(F)(F)F)nc2c1 [Compound I-1-23] | 45 | 85 | –
4 | C[C@H]1CN(c2ccc(CNC(=O)c3c(C(F)(F)F)nc4ccc(Cl)cn34)cc2F)CCN1c1ccc(OC(F)(F)F)cc1 [Compound I-1-24] | – | 62 | 32
5 | Cc1ccc2nc(C)c(C(=O)NCc3ccc(N4CCN(c5ccc(OC(F)(F)F)cc5)[C@@H](C)C4)c(F)c3)n2c1 [Compound I-1-25] | 2.2 | 72 | –
6 | Cc1nc2ccc(F)cn2c1C(=O)NCc1ccc(N2CCN(c3ccc(OC(F)(F)F)cc3)[C@@H](C)C2)c(F)c1 [Compound I-1-26] | 15 | 93 | –
7 | Cc1cc2nc(C)c(C(=O)NCc3ccc(N4CCN(c5ccc(OC(F)(F)F)cc5)[C@@H](C)C4)c(F)c3)n2cc1Cl [Compound I-1-27] | 33 | 80 | –
8 | CCc1nc2ccc(Cl)cn2c1C(=O)NCc1ccc(N2CCN(c3ccc(OC(C)C)cc3)C(C)(C)C2)c(F)c1 [Compound I-1-28] | 12 | 94 | –
9 | C[C@H]1CN(c2ccc(CNC(=O)c3c(C(F)(F)F)nc4ccc(Cl)cn34)cc2F)CCN1c1ccc(OC(F)(F)F)cc1 [Compound I-1-29] | – | 89 | 2.7
10 | O=C(NCc1ccc(C2CCN(c3ccc(OC(F)(F)F)cc3)CC2)c(F)c1)c1c(C(F)(F)F)nc2ccc(Cl)cn12 [Compound I-1-30] | – | 89 | 3.1
11 | Cc1ccn2c(C(=O)NCc3ccc(N4CCN(c5ccc(OC(F)(F)F)cc5)C(C)(C)C4)c(F)c3)c(C)nc2c1 [Compound I-1-31] | 140 | 82 | –
12 | CCc1nc2ccc(Cl)cn2c1C(=O)NCc1ccc(N2CCN(c3ccc(OC(F)(F)F)cc3)C(C)(C)C2)c(F)c1 [Compound I-1-32] | 9.1 | 62 | –
13 | Cc1nc2ccc(F)cn2c1C(=O)NCc1ccc(N2CCN(c3ccc(OC(F)(F)F)cc3)C(C)(C)C2)c(F)c1 [Compound I-1-33] | 68 | 85 | –
14 | CCc1nc2ccc(F)cn2c1C(=O)NCc1ccc(N2CCN(c3ccc(OC(F)(F)F)cc3)[C@@H](C)C2)c(F)c1 [Compound I-1-34] | 8 | 65 | –
15 | CCc1nc2cc(Cl)ccn2c1C(=O)NCc1ccc(N2CCN(c3ccc(OC(F)(F)F)cc3)[C@@H](C)C2)c(F)c1 [Compound I-1-35] | 26 | 91 | –
16 | CCc1nc2ccc(C#N)cn2c1C(=O)NCc1ccc(N2CCN(c3ccc(OC(F)(F)F)cc3)[C@@H](C)C2)c(F)c1 [Compound I-1-36] | 110 | 79 | –
17 | Cc1nc2ccc(Cl)cn2c1C(=O)NCc1ccc(N2CCN(c3ccc(OC(F)(F)F)cc3)C[C@H]2C)c(F)c1 [Compound I-1-37] | 36 | 76 | –
18 | CCc1nc2cc(F)ccn2c1C(=O)NCc1ccc(N2CCN(c3ccc(OC(F)(F)F)cc3)[C@@H](C)C2)c(F)c1 [Compound I-1-38] | 1.3 | 90 | –
19 | CCc1nc2ccc(Cl)cn2c1C(=O)NCc1ccc(N2C[C@H](C)N(c3ccc(OC(F)(F)F)cc3)C[C@H]2C)c(F)c1 [Compound I-1-39] | 11 | 75 | –
20 | Cc1nc2ccc(Cl)cn2c1C(=O)NCc1ccc(N2C[C@H](C)N(c3ccc(OC(F)(F)F)cc3)C[C@H]2C)c(F)c1 [Compound I-1-40] | 22 | 89 | –
21 | Cc1ccn2c(C(=O)NCc3ccc(N4C[C@H](C)N(c5ccc(OC(F)(F)F)cc5)C[C@H]4C)c(F)c3)c(C)nc2c1 [Compound I-1-41] | 180 | 86 | –

Row | Structure (SMILES) | IC85 [1, 3] [nM] | MS_h_% (remaining amount of compound after reaction, 0 minute = 100%) [2] [%] | IC85 [1, 4] [nM]
22 | CCc1nc2ccc(Cl)cn2c1C(=O)NCc1ccc(N2CCN(c3ccc(OC(F)(F)F)cc3)[C@@H](CC)C2)c(F)c1 [Compound I-1-42] | 9 | 59 | –
23 | CCOc1ccc(N2CCN(c3ccc(CNC(=O)c4c(CC)nc5ccc(Cl)cn45)cc3F)C[C@@H]2C)cc1 [Compound I-1-44] | 11 | 69 | –
24 | CCc1nc2ccc(Cl)cn2c1C(=O)NCc1ccc(N2CCN(c3ccc(OCC(F)(F)F)nc3)[C@@H](C)C2)c(F)c1 [Compound I-1-45] | 11 | 64 | –
25 | Cc1nc2cc(F)ccn2c1C(=O)NCc1ccc(N2CCN(c3ccc(OC(F)(F)F)cc3)[C@@H](C)C2)c(F)c1 [Compound I-1-46] | 2.6 | 96 | –
26 | Cc1cc2nc(C)c(C(=O)NCc3ccc(N4CCN(c5ccc(OC(F)(F)F)cc5)[C@@H](C)C4)c(F)c3)n2cc1F [Compound I-1-47] | 110 | 85 | –
27 | CCc1nc2cc(C)c(Cl)cn2c1C(=O)NCc1ccc(N2CCN(c3ccc(OC(F)(F)F)cc3)[C@@H](C)C2)c(F)c1 [Compound I-1-48] | 35 | 69 | –
28 | CCc1nc2cc(C)c(F)cn2c1C(=O)NCc1ccc(N2CCN(c3ccc(OC(F)(F)F)cc3)[C@@H](C)C2)c(F)c1 [Compound I-1-49] | 68 | 59 | –
29 | Cc1nc2ccc(C#N)cn2c1C(=O)NCc1ccc(N2CCN(c3ccc(OC(F)(F)F)cc3)[C@@H](C)C2)c(F)c1.Cl [Compound I-1-50] | 500 | 94 | –
30 | Cc1nc2cc(Cl)ccn2c1C(=O)NCc1ccc(N2CCN(c3ccc(OC(F)(F)F)cc3)[C@@H](C)C2)c(F)c1.Cl [Compound I-1-51] | 110 | 90 | –
31 | Cc1nc2ccccn2c1C(=O)NCc1ccc(N2CCN(c3ccc(OC(F)(F)F)cc3)[C@@H](C)C2)c(F)c1.Cl [Compound I-1-52] | 5.4 | 84 | –
32 | CCOc1ccc(N2CCN(c3ccc(CNC(=O)c4c(CC)nc5ccc(Cl)cn45)cc3F)C[C@@H]2C)cc1F.Cl [Compound I-1-53] | 37 | 65 | –
33 | CCc1nc2ccc(Cl)cn2c1C(=O)NCc1ccc(N2CCN(c3ccc(OCC4CC4)cc3)[C@@H](C)C2)c(F)c1.Cl [Compound I-1-54] | 34 | 79 | –
34 | CCOc1ccc(N2CCN(c3ccc(CNC(=O)c4c(CC)nc5ccc(Cl)cn45)cc3F)C[C@@H]2C)cc1OC.Cl [Compound I-1-55] | 690 | 84 | –
35 | CCc1nc2ccc(Cl)cn2c1C(=O)NCc1ccc(N2CCN(c3ccc(OCC(C)(C)C)cc3)[C@@H](C)C2)c(F)c1.Cl [Compound I-1-56] | 22 | 60 | –
36 | Cc1ccc2nc(Cl)c(C(=O)NCc3ccc(N4CCN(c5ccc(OC(F)(F)F)cc5)[C@@H](C)C4)c(F)c3)n2c1.Cl [Compound I-1-57] | 3.6 | 84 | –
37 | Cc1ccn2c(C(=O)NCc3ccc(N4CCC(c5ccc(OC(F)(F)F)cc5)[C@@H](C)C4)c(F)c3)c(Cl)nc2c1.Cl (stereo partly drawn) [Compound I-1-58] | 77 | 89 | –
38 | C[C@H]1CN(c2ccc(CNC(=O)c3c(Cl)nc4ccccn34)cc2F)CCN1c1ccc(OC(F)(F)F)cc1.Cl [Compound I-1-59] | 11 | 87 | –
39 | Cc1nc2cc(Cl)ccn2c1C(=O)NCc1ccc(N2CC=C(c3ccc(OC(F)(F)F)cc3)CC2)c(F)c1.Cl [Compound I-1-60] | 11 | 72 | –
40 | Cc1ccn2c(C(=O)NCc3ccc(N4CC=C(c5ccc(OC(F)(F)F)cc5)CC4)c(F)c3)c(C)nc2c1.Cl [Compound I-1-61] | 200 | 95 | –
41 | CCc1nc2ccc(Cl)cn2c1C(=O)NCc1ccc(N2CCC(c3ccc(OC(F)(F)F)cc3)CC2)c(F)c1.Cl [Compound I-1-62] | 7.2 | 82 | –
42 | Cc1nc2ccc(Cl)cn2c1C(=O)NCc1ccc(N2CCC(c3ccc(OC(F)(F)F)cc3)CC2)c(F)c1.Cl [Compound I-1-63] | 12 | 95 | –
